Measured values: US20250049970A1, “DLL3 TARGETING PEPTIDES AND CONSTRUCTS THEREOF” (MARIANA ONCOLOGY INC., priority 2023, published 2025)
*1 amine or outer side, *2 acyl side, *3 side chain or, on linkers, in order; H or OH if unused. Where a SMILES comes first, the peptide text is derived from it. Bridges are numbered along the chain shown (N, C = ends). [ ]: non-standard residue; d: D form. The star is where a group is joined. Ala(piperidin-4-yl) = O=C([C@H](CC1CCN([*:3])CC1)N[*:1])[*:2]; DOTA = O=C(O)CN1CCN(CC(=O)O)CCN(CC(=O)*)CCN(CC(=O)O)CC1; 2Nal = N[C@@H](Cc1ccc2ccccc2c1)C(=O)O; Gly(4-THP) = N[C@H](C(=O)O)C1CCOCC1; tBuAla = CC(C)(C)C[C@H](N)C(=O)O; Cha = N[C@@H](CC1CCCCC1)C(=O)O; NMeNle = CCCC[C@H](NC)C(=O)O

Columns and labels:
SHP-77 cells [1] = assay: Internalization of [177Lu]Lu-labeled peptide, SHP-77 cells; assay type: cell-based; conditions: 1 h, 37° C.
Method: (§1) [^177Lu]LuCl3 was received from venders in HCl solution. For every mCi of [^177Lu]LuCl3 added to the reaction vial (1.5 mL Eppendorf vial), ammonium acetate buffer (0.2 M, pH 4.9, 100 μL, containing 1% w/v ascorbic acid and 6% v/v ethanol) and peptide conjugate (1 nmol; also referred to herein as “chelator-peptides”) was added. The pH of the solution was determined to be approximately 5 by using pH strips. The reaction vial was incubated at 80° C., 700 RPM for 17-20 minutes. A sample from the reaction was analyzed by RP-HPLC using an Agilent Infinity II 1260 HPLC to determine reaction completion and radiochemical purity of [^177Lu]Lu-chelator-peptides. HPLC conditions: Waters XBridge BEH C18 Column, 130A, 3.5 μm, 4.6 mm×250 mm; mobile phase: Solvent A=water (with 0.1% formic acid), solvent B=acetonitrile (with 0.1% formic acid). Gradients: 25-45% B in 10 minutes, 45-65% B in 12 minutes, 65-90% in 6 minutes at a flow rate of 0.5 mL/minutes Required amounts of the product was formulated in 1% PBSA for cell studies.
(§2) The study was conducted using SHP-77, CT26.WT, CT26.DLL3, and HEK293.DLL3 cells (Table 9)
(§3) Adherent cell studies: The cells were cultured in appropriate culture media (20 mL) in tissue culture treated T150 flasks at 37° C. and 5% C02. Adherent cells were detached (60-70% confluent) using 5 mL Versene at 37° C. for 3 minutes. After confirming the viability using countess and count of detached cells using Trypan blue, the cells were centrifuged at 4° C. for 5 minutes (1,000 rpm). The cell pellet obtained was washed once with PBS and resuspended in 1% PBSA to obtain the desired cell concentration (5-25 million cells/mL).
(§4) Suspension cell studies: The cells were cultured in appropriate culture media (20 mL) in tissue culture treated T150 flasks at 37° C. and 5% CO2. After confirming the viability and count of detached cells using Trypan blue, the cells were centrifuged at 4° C. for 5 minutes (1,000 rpm). The cell pellet obtained was washed once with PBS and resuspended in 1% PBSA to obtain the desired cell concentration (5-25 million cells/mL).
(§5) Cell numbers used for the assay were in the range of 5 million cells/condition-25 million cells/condition.
(§6) Internalization: The resuspended cells in 300 μL of 1% PBSA and counted in the gamma counter as “bound fraction” were collected in 1.5 mL Eppendorf tube and pelleted. The pelleted cells were incubated with 300 μL of 50 mM Glycine pH=2.5 for 3 minutes and then pelleted discarding the supernatant. This process was repeated one more time. The pelleted cells were washed with 300 μL of cold 1% PBSA and then resuspended in 300 μl 0.3M NaOH. This was counted in the gamma counter as “internalized fraction”.
(§7) In these Tables, “A” represents % s ≤25; “B” represents 25 <% ≤50; “C” represents % >50.

[2] = system: nude mice bearing SHP-77 tumors; assay: Ex vivo biodistribution of radiolabeled peptides (% IA/g) in nude mice bearing SHP-77 tumors; conditions: [177Lu]Lu labelling, 24 hours post-injection, intravenous
In short: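 [177Lu]Lu-peptides were given as an IV tail-vein bolus once tumors reached 200-400 mm^3. Injected activity was set per mouse from syringe dose-calibrator readings. At set time points, tissues were weighed and gamma-counted, and counts were decay-corrected to injection and expressed as % IA/g.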

CT26.DLL3 cells [3] = assay: Cell binding (total uptake) of [177Lu]Lu-labeled peptide, CT26.DLL3 cells; assay type: cell-based; conditions: 1 h, 37° C.
Method: as §1, §2, §3, §5
(§8) Total uptake: Cells were incubated with 300 μL (0.8 μCi) of the incubation buffer (containing radiolabeled peptide [^177Lu]Lu-test peptide) for 1 hour at 37° C. (Table 10). Post incubation, the cells were pelleted and washed 2 times using cold PBS+1% BSA. The supernatant and washes were combined and counted together as “unbound fraction” in a gamma counter. The cells were then resuspended in 300 μL of 1% PBS+1% BSA and counted in the gamma counter as “bound fraction”.
as §7

DLL3 = target: T1, DLL3 (Homo sapiens, UniProt Q9NYJ7); assay: SPR KD, biotinylated human DLL3 on streptavidin chip (Table 8); design: biotin (biotinylated); conditions: biotinylated human DLL3 on streptavidin sensor chip, 25° C., 1:1 binding model; read-out: SPR KD
T1 sequence (Q9NYJ7 27-618): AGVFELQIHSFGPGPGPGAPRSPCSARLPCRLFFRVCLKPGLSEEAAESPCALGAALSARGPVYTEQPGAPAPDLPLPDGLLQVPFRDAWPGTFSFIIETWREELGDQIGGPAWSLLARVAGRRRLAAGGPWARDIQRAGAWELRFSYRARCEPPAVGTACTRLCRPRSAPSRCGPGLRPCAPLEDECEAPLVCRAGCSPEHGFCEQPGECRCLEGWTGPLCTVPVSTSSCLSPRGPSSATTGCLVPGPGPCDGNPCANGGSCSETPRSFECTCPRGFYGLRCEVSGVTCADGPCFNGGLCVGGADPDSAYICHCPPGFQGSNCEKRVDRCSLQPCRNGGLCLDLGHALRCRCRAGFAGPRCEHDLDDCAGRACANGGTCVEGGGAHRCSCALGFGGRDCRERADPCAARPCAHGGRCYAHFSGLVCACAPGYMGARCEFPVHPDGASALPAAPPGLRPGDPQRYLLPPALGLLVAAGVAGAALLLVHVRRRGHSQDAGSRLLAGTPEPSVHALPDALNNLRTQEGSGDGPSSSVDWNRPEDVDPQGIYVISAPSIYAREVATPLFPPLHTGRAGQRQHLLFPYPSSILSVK
Text: Biotinylated target ligand human DLL3 was immobilized on a streptavidin sensor chip. A reference surface was set up for nonspecific binding and refractive index changes. […] Sensorgram curves were fitted with 1:1 binding model, and affinity and kinetic parameters were obtained using Biacore Insight evaluation 4.0. software.

SHP-77 cells [4] = assay: Cell binding (total uptake) of [177Lu]Lu-labeled peptide, SHP-77 cells; assay type: cell-based; conditions: 1 h, 37° C.
Method: as §1, §2, §3, §4, §5, §8, §7

CT26.DLL3 cells [5] = assay: Internalization of [177Lu]Lu-labeled peptide, CT26.DLL3 cells; assay type: cell-based; conditions: 1 h, 37° C.
Method: as §1, §2, §3, §5, §6, §7

| SMILES | % Internalization (out of bound fraction) (SHP-77 cells [1]) | kidney uptake (% IA/g) [2] | tumor uptake (% IA/g) [2] | % Binding (CT26.DLL3 cells [3]) | Kd (DLL3) | % Binding (SHP-77 cells [4]) | % Internalization (out of bound fraction) (CT26.DLL3 cells [5]) |
| --- | --- | --- | --- | --- | --- | --- | --- |
| CC(=O)N[C@@H](Cc1c[nH]c2ccccc12)C(=O)N[C@H](C(=O)N[C@@H](CC1CCCCC1)C(=O)N[C@H]1CSSC[C@@H](C(=O)N[C@@H](Cc2c[nH]c3ccccc23)C(=O)N2CCC[C@H]2C(N)=O)NC(=O)[C@H](CC(=O)O)NC(=O)[C@H](CCCCNC(=O)CN2CCN(CC(=O)O)CCN(CC(=O)O)CCN(CC(=O)O)CC2)NC(=O)[C@H](Cc2ccc3ccccc3c2)NC(=O)[C@H](CC(N)=O)NC(=O)[C@H](CC(N)=O)NC1=O)[C@@H](C)O [compound 323, Ac-W-T-(CHA)-C(3)-N-N-(2Nal)-Lys(DOTA)-D-C(3)-W-P-CONH2] (Ac-WT[Cha]CNN[2Nal]K(DOTA)DCWP-NH2; disulfide 4-10) | B (25 <% ≤50) | D (“D” represents % IA/g > 10 in kidney) | A (“A” represents 0 < % IA/g ≤ 5 in tumor) | A (% s ≤25) | < 1 nM | A (% s ≤25) | C (% >50) |
| CC(=O)N[C@@H](Cc1c[nH]c2ccccc12)C(=O)N[C@H](C(=O)N[C@@H](CC(C)(C)C)C(=O)N[C@H]1CSSC[C@@H](C(=O)N[C@@H](Cc2c[nH]c3ccccc23)C(=O)N2CCC[C@H]2C(N)=O)NC(=O)[C@H](CC(=O)O)NC(=O)[C@H](CCCCNC(=O)CN2CCN(CC(=O)O)CCN(CC(=O)O)CCN(CC(=O)O)CC2)NC(=O)[C@H](Cc2ccc3ccccc3c2)NC(=O)[C@H](CC(N)=O)NC(=O)[C@H](CC2CCNCC2)NC1=O)[C@@H](C)O [compound 314, Ac-W-T-(t-Bu-Ala)-C(3)-[3-(4-piperidinyl)-Ala]-N-(2Nal)-Lys(DOTA)-D-C(3)-W-P-CONH2] (Ac-WT[tBuAla]C[Ala(piperidin-4-yl)]N[2Nal]K(DOTA)DCWP-NH2; disulfide 4-10) | B (25 <% ≤50) | C (“C” represents 0 < % IA/g ≤ 10 in) | A (“A” represents 0 < % IA/g ≤ 5 in tumor) | B (25 <% ≤50) | < 1 nM | B (25 <% ≤50) | B (25 <% ≤50) |
| CCCC[C@@H](C(=O)N[C@H]1CSSC[C@@H](C(=O)N[C@@H](Cc2c[nH]c3ccccc23)C(=O)N2CCC[C@H]2C(N)=O)NC(=O)[C@H](CC(=O)O)NC(=O)[C@H](CCCCNC(=O)CN2CCN(CC(=O)O)CCN(CC(=O)O)CCN(CC(=O)O)CC2)NC(=O)[C@H](Cc2ccc3ccccc3c2)NC(=O)[C@H](CC(N)=O)NC(=O)[C@H](CC(N)=O)NC1=O)N(C)C(=O)[C@@H](NC(=O)[C@H](Cc1c[nH]c2ccccc12)NC(C)=O)[C@@H](C)O [compound 320, Ac-W-T-(NMe-Nle)-C(3)-N-N-(2Nal)-Lys(DOTA)-D-C(3)-W-P-CONH2] (Ac-WT[NMeNle]CNN[2Nal]K(DOTA)DCWP-NH2; disulfide 4-10) | B (25 <% ≤50) | D (“D” represents % IA/g > 10 in kidney) | A (“A” represents 0 < % IA/g ≤ 5 in tumor) | A (% s ≤25) | < 1 nM | A (% s ≤25) | B (25 <% ≤50) |
| CC[C@H](C)[C@H](NC(=O)[C@@H](NC(=O)[C@H](Cc1c[nH]c2ccccc12)NC(C)=O)[C@@H](C)O)C(=O)N[C@H]1CSSC[C@@H](C(=O)N[C@@H](Cc2c[nH]c3ccccc23)C(=O)N2CCC[C@H]2C(N)=O)NC(=O)[C@H](CC(=O)O)NC(=O)[C@H](Cc2cnc[nH]2)NC(=O)[C@H](Cc2ccc3ccccc3c2)NC(=O)[C@H](CC(N)=O)NC(=O)[C@H](CCCCNC(=O)CN2CCN(CC(=O)O)CCN(CC(=O)O)CCN(CC(=O)O)CC2)NC1=O [compound 249, Ac-W-T-I-C(3)-Lys(DOTA)-N-(2Nal)-H-D-C(3)-W-P-CONH2] (Ac-WTICK(DOTA)N[2Nal]HDCWP-NH2; disulfide 4-10) | B (25 <% ≤50) | C (“C” represents 0 < % IA/g ≤ 10 in) | A (“A” represents 0 < % IA/g ≤ 5 in tumor) | A (% s ≤25) | < 1 nM | A (% s ≤25) | B (25 <% ≤50) |
| CC(=O)N[C@@H](Cc1c[nH]c2ccccc12)C(=O)N[C@H](C(=O)N[C@H](C(=O)N[C@H]1CSSC[C@@H](C(=O)N[C@@H](Cc2c[nH]c3ccccc23)C(=O)N2CCC[C@H]2C(N)=O)NC(=O)[C@H](CC(=O)O)NC(=O)[C@H](CCCCNC(=O)CN2CCN(CC(=O)O)CCN(CC(=O)O)CCN(CC(=O)O)CC2)NC(=O)[C@H](Cc2ccc3ccccc3c2)NC(=O)[C@H](CC(N)=O)NC(=O)[C@H](CC(N)=O)NC1=O)C1CCOCC1)[C@@H](C)O [compound 317, Ac-W-T-(THPG)-C(3)-N-N-(2Nal)-Lys(DOTA)-D-C(3)-W-P-CONH2] (Ac-WT[Gly(4-THP)]CNN[2Nal]K(DOTA)DCWP-NH2; disulfide 4-10) | B (25 <% ≤50) | D (“D” represents % IA/g > 10 in kidney) | A (“A” represents 0 < % IA/g ≤ 5 in tumor) | A (% s ≤25) | < 1 nM | A (% s ≤25) | C (% >50) |
